In brackets after ≈: the same amount, converted by molar mass. Read-outs that look alike come from different tables or passages of the source.
Assays:
[1] = test system: M. tuberculosis H37Rv (London Pride); experiment: microbe, parasite or virus in culture; format: cell-based, Mycobacterium tuberculosis; conditions: for activity against M. tuberculosis (in words): SAR discussion
[2] = Mycobacterium tuberculosis, H37RV, 120 h
[3] = Mycobacterium tuberculosis, H37RV

| Molecule | MIC [1, 2] [µM] | activity against M. tuberculosis (in words) [1] | TC50 (Vero cells; African green monkey) [µM] | MIC [1, 3] [µM] | further results |
| --- | --- | --- | --- | --- | --- |
| 3-Isobutoxy-N-(5-nitrothiazol-2-yl)picolinamide [compound 22] | – | – | – | – | MIC ([1]; Table 1, […], average ± SD of two independent experiments): 16 ± 6.4 µM; TC50 (Vero cells): 8.9 µM |
| Nc1ccccc1C(=O)Nc1ncc([N+](=O)[O-])s1 [compound 5, 2-Amino-N-(5-nitrothiazol-2-yl)benzamide] | > 20 | no activity | 31 | – | – |
| CNc1ccccc1C(=O)Nc1ncc([N+](=O)[O-])s1 [compound 6, 2-(Methylamino)-N-(5-nitrothiazol-2-yl)benzamide] | > 20 | no activity | 15 | – | – |
| CC(=O)Nc1ccccc1C(=O)Nc1ncc([N+](=O)[O-])s1 [compound 7, 2-Acetamido-N-(5-nitrothiazol-2-yl)benzamide] | > 20 | no activity | – | – | – |
| CCC(C)(C)C(=O)Nc1ccccc1C(=O)Nc1ncc([N+](=O)[O-])s1 [compound 9, 2-(2,2-Dimethylbutanamido)-N-(5-nitrothiazol-2-yl)benzamide] | 17 ± 4.9 (≈ 6.16 µg/mL) | showed activity | 4.1 | – | – |
| CC(C)(C)OC(=O)Nc1ccccc1C(=O)Nc1ncc([N+](=O)[O-])s1 [compound 10, tert-Butyl (2-((5-nitrothiazol-2-yl)carbamoyl)phenyl)carbamate] | 17 ± 4.2 (≈ 6.19 µg/mL) | showed activity | 6.6 | – | – |
| O=C(Nc1ncc([N+](=O)[O-])s1)c1cc(F)ccc1O [compound 11, 5-Fluoro-2-hydroxy-N-(5-nitrothiazol-2-yl)benzamide] | > 20 | no activity | – | – | – |
| CCC(C)(C)C(=O)Oc1cc(N2CCOCC2)ccc1C(=O)Nc1ncc([N+](=O)[O-])s1 [compound 14, 5-Morpholino-2-((5-nitrothiazol-2-yl)carbamoyl)phenyl 2,2-dimethylbutanoate] | > 20 | no activity | 12 | – | – |
| O=C(Nc1ncc([N+](=O)[O-])s1)c1cc(O)ccc1O [compound 15, 2,5-Dihydroxy-N-(5-nitrothiazol-2-yl)benzamide] | > 20 | no activity | 13 | – | – |
| O=C(O)c1ccccc1C(=O)Nc1ncc([N+](=O)[O-])s1 [compound 16, 2-((5-Nitrothiazol-2-yl)carbamoyl)benzoic Acid] | > 20 | no activity | >50 | – | – |
| COc1ccccc1C(=O)Nc1ncc([N+](=O)[O-])s1 [compound 17, 2-Methoxy-N-(5-nitrothiazol-2-yl)benzamide] | > 20 | no activity | – | – | – |
| CCC(C)(C)C(=O)Nc1cccnc1C(=O)Nc1ncc([N+](=O)[O-])s1 [compound 18, 3-(2,2-Dimethylbutanamido)-N-(5-nitrothiazol-2-yl)picolinamide] | 1.4 ± 0.6 (≈ 0.509 µg/mL) | showed activity | 0.9 | – | improvement in activity relative to 1 [1]: 10 fold |
| COc1ccnc(C(=O)Nc2ncc([N+](=O)[O-])s2)c1 [compound 20, 4-Methoxy-N-(5-nitrothiazol-2-yl)picolinamide] | 5.6 ± 4.2 (≈ 1.57 µg/mL) | – | 11 | – | – |
| COc1ccc(C(=O)Nc2ncc([N+](=O)[O-])s2)nc1 [compound 21, 5-Methoxy-N-(5-nitrothiazol-2-yl)picolinamide] | 5.5 ± 2.1 (≈ 1.54 µg/mL) | – | 4.3 | – | – |
| CCC(C)(C)C(=O)Oc1cccnc1C(=O)Nc1ncc([N+](=O)[O-])s1 [compound 23, 2-((5-Nitrothiazol-2-yl)carbamoyl)pyridin-3-yl 2,2-dimethylbutanoate] | 12 ± 1 (≈ 4.37 µg/mL) | – | 21 | – | – |
| CC(=O)Nc1ncc([N+](=O)[O-])s1 [compound 26, N-(5-Nitrothiazol-2-yl)acetamide] | – | loss of activity | – | > 20 | – |
| O=C(Nc1ncc([N+](=O)[O-])s1)C1CC1 [compound 27, N-(5-nitrothiazol-2-yl)cyclopropanecarboxamide] | – | loss of activity | – | > 20 | – |

| Molecule | MIC [1, 2] [µM] | activity against M. tuberculosis (in words) [1] | TC50 (Vero cells; African green monkey) [µM] | MIC [1, 3] [µM] | further results |
| --- | --- | --- | --- | --- | --- |
| O=C(Nc1ncc([N+](=O)[O-])s1)C1CCCCC1O (stereo not shown) [compound 29, 2-Hydroxy-N-(5-nitrothiazol-2-yl)cyclohexane-1-carboxamide] | – | – | – | > 20 | – |
| O=C(Nc1ncc([N+](=O)[O-])s1)c1ccncn1 [compound 30, N-(5-Nitrothiazol-2-yl)pyrimidine-4-carboxamide] | – | loss of activity | – | > 20 | – |
| O=C(Nc1ncc([N+](=O)[O-])s1)N1CCCCC1 [compound 31, N-(5-Nitrothiazol-2-yl)piperidine-1-carboxamide] | – | – | – | > 20 | – |
| O=C(Nc1ncc([N+](=O)[O-])s1)c1cnccn1 [compound 32, N-(5-Nitrothiazol-2-yl)pyrazine-2-carboxamide] | – | – | – | > 20 | – |
| O=C(Nc1ncc([N+](=O)[O-])s1)c1nccs1 [compound 33, N-(5-Nitrothiazol-2-yl)thiazole-2-carboxamide] | – | – | – | > 20 | – |
| O=C(Nc1ncc([N+](=O)[O-])s1)c1cccnc1 [compound 34, N-(5-Nitrothiazol-2-yl)nicotinamide] | – | – | – | > 20 | – |
| O=C(Nc1ncc([N+](=O)[O-])s1)c1ccncc1 [compound 35, N-(5-Nitrothiazol-2-yl)isonicotinamide] | – | – | – | > 20 | – |
| O=C(Nc1ncc([N+](=O)[O-])s1)NC1CCCCC1 [compound 38, 1-Cyclohexyl-3-(5-nitrothiazol-2-yl)urea] | – | – | – | > 20 | – |
| O=C(Nc1ccccn1)Nc1ncc([N+](=O)[O-])s1 [compound 39, 1-(5-Nitrothiazol-2-yl)-3-(pyridin-2-yl)urea] | – | – | – | > 20 | – |
| Cn1ccnc1C(=O)Nc1ncc([N+](=O)[O-])s1 [compound 40, 1-Methyl-N-(5-nitrothiazol-2-yl)-1H-imidazole-2-carboxamide] | – | – | – | > 20 | – |
| O=C(Nc1ncc([N+](=O)[O-])s1)c1ncco1 [compound 41, N-(5-Nitrothiazol-2-yl)oxazole-2-carboxamide] | – | – | – | > 20 | – |
| O=C(Nc1ncc([N+](=O)[O-])s1)c1ccon1 [compound 42, N-(5-Nitrothiazol-2-yl)isoxazole-3-carboxamide] | – | – | – | > 20 | – |
| Cc1cnc(C(=O)Nc2ncc([N+](=O)[O-])s2)s1 [compound 43, 5-Methyl-N-(5-nitrothiazol-2-yl)thiazole-2-carboxamide] | – | – | – | > 20 | – |
| O=C(Nc1ncc([N+](=O)[O-])s1)c1nc2ccccc2s1 [compound 44, N-(5-Nitrothiazol-2-yl)benzo[d]thiazole-2-carboxamide] | – | – | – | > 20 | – |
| O=[N+]([O-])c1cnc(NS(=O)(=O)c2ccccc2O)s1 [compound 54, 2-Hydroxy-N-(5-nitrothiazol-2-yl)benzenesulfonamide] | – | inactive | – | – | – |
| O=[N+]([O-])c1cnc(NCc2ccccc2O)s1 [compound 55, 2-(((5-Nitrothiazol-2-yl)amino)methyl)phenol] | – | inactive | – | – | – |
| O=[N+]([O-])c1cnc(NCc2ccccn2)s1 [compound 56, 5-Nitro-N-(pyridin-2-ylmethyl)thiazol-2-amine] | – | inactive | – | – | – |

Source: publication PMC6044914 (ACS Omega, 2017)
